# According to patent US9889113B2, “Method for reversing, preventing, delaying or stabilizing soft tissue calcification” (Panion & BF Biotech, Inc., priority 2006, dated 2018):
# What was measured:
# [1] = test system: cornea calcification in end stage renal disease patients; experiment: Cornea calcification by slit-lamp photographs and Image J analysis, Phase II and open-label extension; assay type: in vivo, human; conditions: for 1st eye test Calcified area on cornea (%): baseline
# Method: Eye examinations were carried out by using a slit-lamp microscope which was connected to a digital camera (NIKON E995). Calcifications in the cornea occur close to the nasal and temporal sides of the corneal limbus and look like the band keratopathy of hypercalcemia. Observer photographed the inner side (close to nasal), outer side (close to temporal) or took a full view of the cornea where calcification was found (FIG. 6).
# An image analysis software called “Image J” was used for data analysis. The image analysis software is developed to display, edit, analyze, process, save and print 8-bit, 16-bit and 32-bit images. It can calculate area and pixel value statistics of user-defined selections, measure distances and angles, and create density histograms and line profile plots. It supports standard image processing functions such as contrast manipulation, sharpening, smoothing, edge detection and median filtering. The software is developed at the Research Services Branch of the National Institute of Mental Health, an institute of the National Institutes of Health (NIH). The software can be downloaded from the NIH website.
# The image analysis software is able to measure calcified area and total cornea area that are subjectively defined by the user. To estimate calcified area, the observer first loads the patient's eye picture on to the image software, crops the specific calcified region, and the software will measure the defined section accordingly (defined as how many pixels in that area). […] To estimate the size of the full cornea, the observer used the image software to crop a 90 degrees fan-shape area on the available cornea region on the picture subjectively, and then let the software calculate the size of this fan-shape area to represent ¼ of the full cornea. By multiply the number by four, the observer then got an estimate of total cornea area.
# The severity of cornea calcification was evaluated based on the percentage of the cornea surface occupied by calcification, i.e. % inner side calcification+% outer side calcification, wherein inner or outer side calcification is calculated as (calcified area on inner or outer cornea/total cornea area)×100.
# In this study, patients were referred to ophthalmic department for eye examination before and after ferric citrate treatment. All patients had their 1st eye examination few days before or on the first dosing day of the Phase II trial (baseline value for cornea calcification). The time for 2nd eye examination was varied. Some were examined right after the Phase II study and some were examined during the OLE period. Nonetheless, disregarding when the 2nd eye examination was taken, it must be obtained after a defined consecutive days of ferric citrate administration in order to be considered as valid value for determinating the effects of ferric citrate on the cornea calcification changes.
# All patients from the ferric citrate Phase II clinical trial were followed with a drug free period for various length of time, and some patients then participated in the open-label extension treatment period. Each participating patients received two eye examinations performed by an ophthalmologist. Depending on the dates of the first and second eye examinations and the corresponding drug dosing period, not all participating patients can generate usable information. The accepted patients were those who had received consecutive dosing for at least 21 days. The period between the first and second eye examination was at least as long as the dosing period. The actual interval between the two eye examinations was not relevant for the purpose of this evaluation since the longer the time between the first and second eye examination, the higher the possibility of cornea calcification development, not the other way around. […]
# [2] = test system: patients with end stage renal disease (ESRD); experiment: Serum creatinine level in the open-label extension of the Phase II study; assay type: in vivo, human; conditions: several patients who received 6 g/day
# Excerpt: Glomerular filtration rate (GFR) level correlates with structural kidney damage and is used as a golden standard to measure kidney function. GFR can be estimated by the biomarkers serum creatinine. As renal function deteriorates, kidney lost its function to excrete creatinine effectively and lead to creatinine retention in the body. Therefore, increase of serum creatinine indicates lowering GFR and is an important sign of kidney deterioration.
# In an open-label extension of a Phase II clinical study: “randomized, double-blind, placebo-controlled, dose-ranging study of the effects of ferric citrate on serum phosphate in patients with end stage renal disease (ESRD)”, some of the patients were administered 2-6 g/day of ferric citrate and serum creatinine level was monitored to assess kidney function.
# [3] = 11 patients on active treatment (22 eye values)
# [4] = Subject 2-01-1-002, Left eye, 2 g/day, treatment 28 days, interval between tests 61 days
# [5] = Subject 2-01-1-002, Right eye, 2 g/day, treatment 28 days, interval between tests 61 days
# [6] = Subject 2-01-1-004, Left eye, 6 g/day, treatment 28 days, interval between tests 78 days
# [7] = Subject 2-01-1-004, Right eye, 6 g/day, treatment 28 days, interval between tests 78 days
# [8] = Subject 2-01-1-006, Left eye, 6 g/day, treatment 28 days, interval between tests 50 days
# [9] = Subject 2-01-1-006, Right eye, 6 g/day, treatment 28 days, interval between tests 50 days
# [10] = Subject 2-01-1-009, Left eye, 4 g/day, treatment 28 days, interval between tests 50 days
# [11] = Subject 2-01-1-009, Right eye, 4 g/day, treatment 28 days, interval between tests 50 days
# [12] = Subject 2-01-1-012, Left eye, 2 g/day, treatment 28 days, interval between tests 66 days
# [13] = Subject 2-01-1-012, Right eye, 2 g/day, treatment 28 days, interval between tests 66 days
# [14] = Subject 2-01-1-018, Left eye, 6 g/day, treatment 28 days, interval between tests 75 days
# [15] = Subject 2-01-1-018, Right eye, 6 g/day, treatment 28 days, interval between tests 75 days
# [16] = Subject 2-01-1-022, Left eye, 6 g/day, treatment 57 days, interval between tests 217 days
# [17] = Subject 2-01-1-022, Right eye, 6 g/day, treatment 57 days, interval between tests 217 days
# [18] = Subject 2-01-1-042, Left eye, 6 g/day, treatment 42 days, interval between tests 199 days
# [19] = Subject 2-01-1-042, Right eye, 6 g/day, treatment 42 days, interval between tests 199 days
# [20] = Subject 2-01-1-048, Left eye, 4 g/day, treatment 28 days, interval between tests 186 days
# [21] = Subject 2-01-1-048, Right eye, 4 g/day, treatment 28 days, interval between tests 186 days
# [22] = Subject 2-01-1-050, Left eye, 6 g/day, treatment 33 days, interval between tests 198 days
# [23] = Subject 2-01-1-050, Right eye, 6 g/day, treatment 33 days, interval between tests 198 days
# [24] = Subject 2-01-1-068, Left eye, 6 g/day, treatment 34 days, interval between tests 202 days
# [25] = Subject 2-01-1-068, Right eye, 6 g/day, treatment 34 days, interval between tests 202 days
structure (smiles),measurement,setting,value
O=C([O-])CC(O)(CC(=O)[O-])C(=O)[O-].[Fe+3] [ferric citrate],average change of worsened eye cornea calcification values,[1]; 10 worsened eye values of 11 actively treated patients,+2.20%
same,average change of improved eye cornea calcification values,[1]; 11 improved eye values of 11 actively treated patients,−2.07%
same,number of eye cornea calcification values that exhibited improvement,[1]; [3],11
same,number of eye cornea calcification values that remained unchanged,[1]; [3],one
same,number of eye cornea calcification values that exhibited worsened results,"[1]; 11 patients on active treatment (22 eye values), 2-6 g/day, 28 to 57 days",10
same,effect on cornea calcification conditions (overall),"[1]; ESRD patients, 2-6 g/day",appears to delay or improve cornea calcification conditions
same,cornea calcification after treatment (FIG. 10),"[1]; Patient ID 2-01-1-012, 2 g/day, treatment period 28 days",improved cornea calcification
same,2nd eye test Calcified area on cornea (%),[1]; [4],3.75%
same,Difference between 1st and 2nd tests (%),[1]; [4],−0.15%
same,1st eye test Calcified area on cornea (%),[1]; [4],3.90%
same,2nd eye test Calcified area on cornea (%),[1]; [5],0.00%
same,Difference between 1st and 2nd tests (%),[1]; [5],0.00%
same,1st eye test Calcified area on cornea (%),[1]; [5],0.00%
same,2nd eye test Calcified area on cornea (%),[1]; [6],1.10%
same,Difference between 1st and 2nd tests (%),[1]; [6],−1.40%
same,1st eye test Calcified area on cornea (%),[1]; [6],2.50%
same,2nd eye test Calcified area on cornea (%),[1]; [7],2.20%
same,Difference between 1st and 2nd tests (%),[1]; [7],−2.18%
same,1st eye test Calcified area on cornea (%),[1]; [7],4.38%
same,2nd eye test Calcified area on cornea (%),[1]; [8],50.36%
same,Difference between 1st and 2nd tests (%),[1]; [8],−0.59%
same,1st eye test Calcified area on cornea (%),[1]; [8],50.95%
same,2nd eye test Calcified area on cornea (%),[1]; [9],29.27%
same,Difference between 1st and 2nd tests (%),[1]; [9],−3.16%
same,1st eye test Calcified area on cornea (%),[1]; [9],32.43%
same,2nd eye test Calcified area on cornea (%),[1]; [10],0.00%
same,Difference between 1st and 2nd tests (%),[1]; [10],−1.16%
same,1st eye test Calcified area on cornea (%),[1]; [10],1.16%
same,2nd eye test Calcified area on cornea (%),[1]; [11],1.00%
same,Difference between 1st and 2nd tests (%),[1]; [11],0.49%
same,1st eye test Calcified area on cornea (%),[1]; [11],0.51%
same,2nd eye test Calcified area on cornea (%),[1]; [12],2.09%
same,Difference between 1st and 2nd tests (%),[1]; [12],−1.41%
same,1st eye test Calcified area on cornea (%),[1]; [12],3.50%
same,2nd eye test Calcified area on cornea (%),[1]; [13],4.69%
same,Difference between 1st and 2nd tests (%),[1]; [13],−10.21%
same,1st eye test Calcified area on cornea (%),[1]; [13],14.90%
same,2nd eye test Calcified area on cornea (%),[1]; [14],7.72%
same,Difference between 1st and 2nd tests (%),[1]; [14],1.79%
same,1st eye test Calcified area on cornea (%),[1]; [14],5.93%
same,2nd eye test Calcified area on cornea (%),[1]; [15],38.86%
same,Difference between 1st and 2nd tests (%),[1]; [15],−1.99%
same,1st eye test Calcified area on cornea (%),[1]; [15],40.85%
same,2nd eye test Calcified area on cornea (%),[1]; [16],8.37%
same,Difference between 1st and 2nd tests (%),[1]; [16],6.98%
same,1st eye test Calcified area on cornea (%),[1]; [16],1.39%
same,2nd eye test Calcified area on cornea (%),[1]; [17],7.29%
same,Difference between 1st and 2nd tests (%),[1]; [17],0.08%
same,1st eye test Calcified area on cornea (%),[1]; [17],7.21%
same,2nd eye test Calcified area on cornea (%),[1]; [18],4.91%
same,Difference between 1st and 2nd tests (%),[1]; [18],4.24%
same,1st eye test Calcified area on cornea (%),[1]; [18],0.67%
same,2nd eye test Calcified area on cornea (%),[1]; [19],3.73%
same,Difference between 1st and 2nd tests (%),[1]; [19],3.24%
same,1st eye test Calcified area on cornea (%),[1]; [19],0.49%
same,2nd eye test Calcified area on cornea (%),[1]; [20],2.01%
same,Difference between 1st and 2nd tests (%),[1]; [20],0.16%
same,1st eye test Calcified area on cornea (%),[1]; [20],1.85%
same,2nd eye test Calcified area on cornea (%),[1]; [21],2.09%
same,Difference between 1st and 2nd tests (%),[1]; [21],−0.41%
same,1st eye test Calcified area on cornea (%),[1]; [21],2.50%
same,2nd eye test Calcified area on cornea (%),[1]; [22],1.62%
same,Difference between 1st and 2nd tests (%),[1]; [22],0.76%
same,1st eye test Calcified area on cornea (%),[1]; [22],0.86%
same,2nd eye test Calcified area on cornea (%),[1]; [23],1.54%
same,Difference between 1st and 2nd tests (%),[1]; [23],−0.08%
same,1st eye test Calcified area on cornea (%),[1]; [23],1.62%
same,2nd eye test Calcified area on cornea (%),[1]; [24],3.09%
same,Difference between 1st and 2nd tests (%),[1]; [24],2.04%
same,1st eye test Calcified area on cornea (%),[1]; [24],1.05%
same,2nd eye test Calcified area on cornea (%),[1]; [25],2.24%
same,Difference between 1st and 2nd tests (%),[1]; [25],2.24%
same,1st eye test Calcified area on cornea (%),[1]; [25],0.00%
same,serum creatinine level,[2],trend of decreased serum creatinine level
